Experimental findings from PMC3845904 (Chemical research in toxicology, 2009) are described below.

Structures are written as SMILES. Values joined by “and” are separate entries in the source; they are usually repeats but may differ in a detail not shown here. Equal entries are not always repeated. Where two headings read alike, the source gives them in different places.

Series [1] addresses T1, human P450 1B1 (Homo sapiens, UniProt Q16678).
T1 sequence (Q16678 1-543): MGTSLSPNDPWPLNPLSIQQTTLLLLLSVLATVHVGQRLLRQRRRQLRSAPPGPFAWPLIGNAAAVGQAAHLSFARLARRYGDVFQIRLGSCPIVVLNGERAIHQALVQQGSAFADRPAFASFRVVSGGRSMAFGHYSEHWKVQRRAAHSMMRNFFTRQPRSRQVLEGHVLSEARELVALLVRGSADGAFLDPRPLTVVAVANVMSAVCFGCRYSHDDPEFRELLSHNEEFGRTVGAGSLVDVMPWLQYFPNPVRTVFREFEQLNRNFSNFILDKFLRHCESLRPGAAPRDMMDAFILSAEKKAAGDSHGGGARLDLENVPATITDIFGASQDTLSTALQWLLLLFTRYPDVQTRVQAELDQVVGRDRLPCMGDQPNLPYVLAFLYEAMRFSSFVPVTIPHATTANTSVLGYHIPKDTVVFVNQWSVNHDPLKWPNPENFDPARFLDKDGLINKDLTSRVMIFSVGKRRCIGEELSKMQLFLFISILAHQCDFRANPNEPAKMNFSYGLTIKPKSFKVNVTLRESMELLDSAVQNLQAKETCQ

Series [2] deals with T1, human P450 1B1. As to conditions: pH 7.4.
Series [3] deals with T1, human P450 1B1. Briefly: biochemical.
Series [4] concerns the target T1, human P450 1B1. Briefly: Inhibition of 7-ethoxyresorufin O-deethylation. As to conditions: results not presented.
The target of series [5] is T1, human P450 1B1. The series can be described thus: Spectral binding titration. As to conditions: for Reverse Type I spectra ΔAmax/Ks (magnitude of spectral binding) / Reverse Type I spectra ΔAmax: purified P450 1B1 1.0 μM, ND = not detected at 100 μM; for Reverse Type I spectra ΔAmax: means ± SEs.
The target of the next series is P450 1A2 (Homo sapiens, UniProt P05177). Briefly: Inhibition of EROD activity catalyzed by P450 1A2. In kind it is biochemical. The conditions noted are these: Figure 4.
Chain of P450 1A2 (P05177 whole entry): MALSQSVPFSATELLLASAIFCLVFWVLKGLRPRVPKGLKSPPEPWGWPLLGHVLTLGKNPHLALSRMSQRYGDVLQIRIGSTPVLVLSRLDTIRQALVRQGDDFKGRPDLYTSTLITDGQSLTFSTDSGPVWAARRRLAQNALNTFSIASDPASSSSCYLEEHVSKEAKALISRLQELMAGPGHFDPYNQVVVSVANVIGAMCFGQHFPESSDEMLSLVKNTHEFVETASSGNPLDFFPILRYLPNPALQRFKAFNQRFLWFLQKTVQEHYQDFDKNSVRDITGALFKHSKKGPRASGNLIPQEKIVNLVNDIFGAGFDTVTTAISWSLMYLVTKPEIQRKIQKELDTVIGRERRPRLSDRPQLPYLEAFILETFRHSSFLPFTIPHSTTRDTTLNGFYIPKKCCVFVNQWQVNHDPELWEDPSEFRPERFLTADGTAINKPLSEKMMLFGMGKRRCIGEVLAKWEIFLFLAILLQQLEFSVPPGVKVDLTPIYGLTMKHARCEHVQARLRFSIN

On to `CCC#Cc1ccc(-c2ccccc2)cc1` [4BuB, 4-butinylbiphenyl], for which it took 1.5 ± 0.3 µM to reach half-maximal inhibition against human P450 1B1 [1] (IC50). Further, binding at human P450 1B1 [2] was put at a Kd of 54 ± 6.2 µM.
For `CC#Cc1ccc(-c2ccccc2)cc1` [4PB, 4-(1-propynyl)biphenyl], on human P450 1B1 [3], the IC50 – broadly, the concentration at which inhibition is half-maximal – is 1.8 ± 0.2 µM. For the same molecule, the “manner of inhibition of P450 1B1 EROD activity” value on human P450 1B1 [4] is on record as “mechanism-based manner”. On human P450 1B1 [5], the “Reverse Type I spectra ΔAmax/Ks (magnitude of spectral binding)” value (“Reverse Type I spectra ΔAmax/Ks” for short) is 0.0062 and the “Reverse Type I spectra ΔAmax” value came out at 0.074 ± 0.008.
With `c1ccc2c(c1)ccc1ccccc12` [Phenanthrene, phenanthrene, reference compound], on human P450 1B1 [3], 0.51 ± 0.1 µM corresponded to half-maximal inhibition (IC50). Besides, on human P450 1B1 [5], the Kd (commonly the concentration at which binding is half-saturated) was found to be 14 ± 1.7 µM, the “Reverse Type I spectra ΔAmax/Ks” value worked out at 0.0031 and the “Reverse Type I spectra ΔAmax” value was determined as 0.044 ± 0.002.
With `Oc1cc(O)cc(/C=C/c2ccc(O)c(O)c2)c1` [Piceatannol (Pice), Piceatannol, reference compound], half-maximal inhibition on human P450 1B1 [3] (IC50) was put at 0.83 ± 0.14 µM. Moreover, on human P450 1B1 [5], the equilibrium dissociation constant (Kd) worked out at 21 ± 1.1 µM, the “Reverse Type I spectra ΔAmax/Ks” value was 0.0016 and the “Reverse Type I spectra ΔAmax” value is 0.034 ± 0.001.
For `c1ccc(-c2ccccc2)cc1` [biphenyl, reference compound], in that order: 19 ± 2.3 µM, 140 ± 19 µM, 0.0003 and 0.037 ± 0.008.
As to `c1ccc2ccccc2c1` [naphthalene, reference compound], on human P450 1B1 [3], the concentration for half-maximal inhibition (IC50) is ~26 µM and 26 µM. Besides, the “inhibition of P450 1A2 EROD (in words)” value against P450 1A2 is “weak”.
Consider `c1cc2ccc3cccc4ccc(c1)c2c34` [pyrene, reference compound], for which half-maximal inhibition at human P450 1B1 [3] (IC50) required 0.025 ± 0.003 µM. Besides, on human P450 1B1 [5], binding was characterised by a dissociation constant (Kd) of 1.3 ± 0.1 µM, the “Reverse Type I spectra ΔAmax/Ks” value came out at 0.0338 and the “Reverse Type I spectra ΔAmax” value amounted to 0.044 ± 0.001.
In the same order, the values of `Oc1ccc(/C=C/c2cc(O)cc(O)c2)cc1` [resveratrol (Res), resveratrol, reference compound] are 1.2 ± 0.2 µM, 28 ± 3.3 µM, 0.0012 and 0.034 ± 0.004.
